Source: US7608585B2, “Compositions for inhibition of necrosis induced by a neurotrophin” (Neurotech Pharmaceuticals Co., Ltd., priority 2004, dated 2009)

Legend:
Type in all cases: cell-based, Rat
[1] = test system: NADPH oxidase activation (p47-phox, p67-phox); experiment: Subcellular fractionation and western blot, translocation of p47-phox and p67-phox; details: exposed for 16-32 hr
Protocol: Activation of NADPH oxidase involves translocation of the cytosolic p47-phox and p67-phox subunits into the plasma membrane (Clark et al., 1989, Trans. Assoc. Am. Physicians., 102, 224-230). We examined if treatment with BDNF would activate NADPH oxidase through isolating the cytosol and membrane fraction.
Cortical cell cultures were washed with ice-cold PBS and resuspended in an isotonic buffer containing 10 mM HEPES, pH 8.0, 250 mM sucrose, 1 mM EDTA, 1 mM EGTA, 1 mM dithiothreitol (DTT), 2 mM PMSF, 100 μg/ml leupeptin, and 10 μg/ml pepstatin A. For isolating the cytosol and membrane fraction, the lysate was homogenized with a homogenizer (KONTE, Vieland, N.J.), centrifuged at 9,000 g for 10 min, and the supernatant was then centrifuged at 100,000 g for 1 hr.
The membrane fraction was obtained by resuspending the pellet with 50 μl lysis buffer and the cytosolic fraction was obtained from the supernatant. As shown in <EXAMPLE 7-4>, western blot experiments were performed to analyze protein levels of NADPH oxidase subunits using available antibodies for gp91-phox, p47-phox, and p67-phox.

[2] = test system: NADPH oxidase (p22-phox, gp91-phox, p47-phox) mRNA; experiment: RT-PCR of NADPH oxidase subunit mRNA
Protocol: RT-PCR experiments were performed to confirm the BDNF-sensitive genes derived from cDNA expression microarray, cytochrome b558 as it constitutes p22-phox and gp91-phox subunits of NADPH oxidase, a pro-oxidant enzyme generating superoxide from oxygen.
Total RNA (1 μg each) was incubated in a reaction mixture containing dNTP (2.5 mM each), RNasin (0.5 Unit), oligo dT primer (100 ng), and MMLV reverse transcriptase (200 Unit) at 37° C. for 1 hr. The samples were incubated at 92° C. for 10 min and transferred to 4° C. The reverse transcribed cDNA was subjected to PCR amplification. PCR was performed according to manufacturer's procedure (Takara Shuzo Co., Japan) sequentially (denaturation-annealing-extension) at following conditions: for p47-phox, 94° C. for 30 S, 55° C. for 30 S, and 72° C. for 60 S (28 cycles); for p22-phox (homologous to cytochrome b558 in microarray) and gp91-phox, 94° C. for 45 S, 60° C. for 60 S, and 72° C. for 120 S (33 cycles); for GAPDH, 94° C. for 35 S, 55° C. for 45 S, and 72° C. for 90 S (25 cycles). Primer sequences used were as follows (5′-3′): for p22-phox, […] (forward) and […] (reverse); for p47-phox, CAGCCA […] (forward) and […] (reverse); for gp91-phox, […] TG (forward) and […] (reverse); for GAPDH, […] (forward) and […] (reverse). PCR products were run on a 1.2% agarose gel and visualized with ethidium bromide. The relative amount of mRNA was measured using LAS-1000 systems (Fuji Photofilm Co., Japan), normalized to levels of GAPDH mRNA. DNA sequencing was performed with Big Dye Terminator Chemistry from Perkin-Elmer Applied Biosystems on ABI PRISM™ 377 DNA sequencer (Foster City, Calif.)

ROS in cortical neurons = experiment: ROS imaging by oxidized DCDHF-DA (DCF) and hydroethidine fluorescence
Protocol: Cortical cell cultures (DIV 12-15) grown on glass bottom dishes were loaded with 10 μM dichlorodihydro fluorescein diacetate (DCDHF-DA) or 5 μM hydroethidium (Molecular Probes, Eugene, Oreg.) plus 2% Pluronic F-127 in HEPES-buffered control salt solution (HCSS) buffer containing (in mM): 120 NaCl, 5 KCl, 1.6 MgCl2, 2.3 CaCl2, 15 glucose, 20 HEPES, and 10 NaOH. Cultures were incubated for 20 min at 37° C., and washed three times with HCSS buffer. […] The fluorescence images were analyzed using a QuantiCell 700 system (Applied imaging, UK).
Superoxide production through activation of NADPH oxidase was analyzed by measuring the oxidation of HEt and DCDHF to ethidium and DCF, respectively, in cortical neurons after exposure to a sham operation, 100 ng/ml BDNF, or 100 ng/ml BDNF plus 3 nM DPI for 32 hr (FIG. 15).

[3] = test system: p47-phox and p67-phox in cortical cell cultures; experiment: Immunocytochemistry of p47-phox and p67-phox; details: 32 hr following exposure
Protocol: Immunocytochemistry was performed to identify which types of cells express NADPH oxidase in cortical cell cultures containing neurons and glia.
Cortical cell cultures (DIV 12-14) grown on glass bottom dishes were fixed in 4% paraformaldehyde for 30 min, incubated in 10% horse serum for 1 hr, and double-immunolabeled with a mouse monoclonal antibody against NeuN (1:400 dilution, Chemicon, Temecula, Calif.) and a goat polyclonal antibody against p47-phox or p67-phox (1:200 dilution, Santa Cruz, Santa Cruz, Calif.) for 2-4 hr. Cultures were then reacted with fluorescein isothiocyanate-conjugated anti-goat IgG (1:200 dilution, Organon Teknika Corp., NC) and Texas red-conjugated anti-mouse IgG (1:200, Vector Laboratory, Burlingame, Calif.) for 1-2 hr. The fluorescence images were collected and analyzed with a fluorescence microscopy (Zeiss, Germany) equipped with the Real-14™ precision digital camera (Apogee Instrument, Tucson, Ariz.) and ImagePro Plus Plug-in (Silver Spring, Md.).

[4] = test system: NADPH oxidase subunits gp91-phox, p47-phox, p67-phox; experiment: Western blot of NADPH oxidase subunits; details: over 16-32 hr exposure
Protocol: Western blot experiments were performed to analyze protein levels of NADPH oxidase subunits using available antibodies for gp91-phox, p47-phox, and p67-phox.
Cortical cell cultures were lysed in a lysis buffer containing 50 mM Tris-HCl (pH 7.5), 1% Nonidet P-40, 150 mM NaCl, 0.5% deoxycholic acid, 0.1% sodium dodecyl sulfate (SDS), 1 mM PMSF (phenylmethylsulfonyl fluoride), 10 μg/ml pepstain A, and 100 μg/ml leupeptin. Cell lysates were centrifuged at 12,000 g for 10 min. approximately 25 μg of protein was subjected to electrophoresis on 12% SDS-polyacrylamide gel and transferred to a nitrocellulose membrane. The blot was incubated in 2.5% bovine serum albumin for 1 hr, incubated with goat polyclonal primary antibodies, anti-gp91-phox, anti-p67-phox, or anti-p47-phox antibodies (1:1000, Santa Cruz, Santa Cruz, Calif.), and then reacted with a biotinylated anti-goat secondary antibody. Immunoreactivity was detected with Vectastain ABC kit (Vector Laboratory, Burlingame, Calif., USA) and luminol for enhanced chemiluminescence Intron, Korea). The signal was analyzed by quantitative densitometry using LAS-1000 systems (Fuji Photofilm Co., Japan).

[5] = test system: Neuron-rich cortical cell cultures; experiment: Serum deprivation-induced neuronal apoptosis, counting viable neurons
Protocol: For neuron-glia mixed cultures, 10 μM cytosine arabinoside (Ara C) was included to stop the overgrowth of non-neuronal cells to cultures at DIV 5-7 when glial cells were confluent underneath neurons. After 2 days, cultures were then fed with plating medium lacking fetal serum twice a week. Cultures were maintained at 37° C. in a humidified 5% CO2 incubator. For neuron-rich cultures (>95%), 2.5 μM Ara C was included to cultures at 2-3 days in vitro (DIV 2-3) as previously described (Gwag et al., 1997).
Mixed cortical cell cultures (DIV 12-14) were rinsed in serum free MS (MEM supplemented with 26.5 mM sodium bicarbonate and 21 mM glucose) and then exposed to various concentrations of NGF, BDNF or NT-3 in serum free MS. Neuronal cell death was analyzed by measuring the level of lactate dehydrogenase (LDH) released into the bathing medium. The percent neuronal death was normalized to the mean LDH value released after a sham control (defined as 0%) or continuous exposure to 500 μM NMDA for 24 hr (defined as 100%) The latter produces complete neuronal death within 24 hr. For experiments for serum deprivation, neuron-rich cortical cell cultures (DIV 7) were placed into serum free MS containing 1 μM MK-801 as described (Gwag et al., 1995). Neuronal death was analyzed 24 and 48 hr later by counting viable neurons excluding Trypan Blue satained.
Neuron-rich cortical cell cultures (DIV 7) were deprived of serum, alone (serum deprivation) or in the presence of 100 ng/ml BDNF, 100 ng/ml BDNF plus 3 nM DPI, 3 nM DPI, 100 ng/ml BDNF plus 100 μM trolox, or 100 μM trolox. Neuronal death was assessed 24 hr and 48 hr later by counting viable neurons.

“BDNF: brain-derived neurotrophic factor, a neurotrophin” was tested, and the “Levels of p47-phox and p67-phox in cytosolic and membrane fraction” value [1] was “reduced in the cytosolic fraction and increased in the membrane fraction”, the “mRNA levels of p22-phox and gp91-phox” value ([2]; 4 hr later, lasted over the next 12 hr) was “maximally increased” and the “mRNA levels of p47-phox subunit” value ([2]; from 30 min following administration) was “increased gradually”. For the same substance, the “mRNA levels of p22-phox and gp91-phox” value ([2]; within 2 hr after treatment) was “increase”, the “Oxidation of HEt and DCDHF” value (ROS in cortical neurons; 100 ng/ml BDNF for 32 hr) was “increased oxidation” and the “Fluorescent intensity of DCF in cortical neurons” value (ROS in cortical neurons; exposed for 16 hr) was “increased”. For the same substance, the “Intraneuronal levels of ROS ([ROS]i)” value (ROS in cortical neurons; over 24-32 hr) was “further increased”, the “Signals of p47-phox and p67-phox (immunoreactivity)” value [3] was “increased exclusively in neurons” and the “Protein levels of NADPH oxidase subunits gp91-phox, p47-phox, and p67-phox” value [4] was “increased”. The “Protective effects of BDNF following serum deprivation” value ([5]; 100 ng/ml, within 48 hrs) was “disappeared” and the Neuronal apoptosis ([5]; serum deprivation, 100 ng/ml BDNF) was “prevented neuronal apoptosis”.
